# Measured values: article PMC12693523, “Aldose Reductase Inhibition by Orthosiphon stamineus Extracts and Constituents Suggests Antioxidant Potential” (Molecules, 2025)
# Molecular target: T1, aldose reductase (AKR1B1) (Homo sapiens, UniProt P15121)
# T1 construct: recombinant human AKR1B1 protein (His Tag)
# Assay: NADPH consumption at […] nm with DL-glyceraldehyde, recombinant enzyme
# Type: biochemical
row,SMILES,IC50 [µM]
1,"O=C(/C=C/c1ccc(O)c(O)c1)O[C@H](Cc1ccc(O)c(O)c1)C(=O)O [RA, rosmarinic acid]",41.4 ± 0.04
2,"COc1ccc(-c2cc(=O)c3c(O)c(OC)c(OC)cc3o2)cc1O [EUP, eupatorin]",203 ± 0.24
